Target: T1, KNCMA1 (Sus scrofa, UniProt O18866)
T1 construct: endogenous in cells; host or cells: primary pig aortic endothelial cells
Test: Whole-cell current in primary pig aortic endothelial cells
Assay type: cell-based
Conditions: no BK beta chains
Description: Pig aortic endothelial cells only express KNCMAI and not KNCMB1-4 (Papassotiriou et al). Thus, the absence of stimulation indicates a lack of effect on KNCMA1.

T1 sequence (O18866 whole entry): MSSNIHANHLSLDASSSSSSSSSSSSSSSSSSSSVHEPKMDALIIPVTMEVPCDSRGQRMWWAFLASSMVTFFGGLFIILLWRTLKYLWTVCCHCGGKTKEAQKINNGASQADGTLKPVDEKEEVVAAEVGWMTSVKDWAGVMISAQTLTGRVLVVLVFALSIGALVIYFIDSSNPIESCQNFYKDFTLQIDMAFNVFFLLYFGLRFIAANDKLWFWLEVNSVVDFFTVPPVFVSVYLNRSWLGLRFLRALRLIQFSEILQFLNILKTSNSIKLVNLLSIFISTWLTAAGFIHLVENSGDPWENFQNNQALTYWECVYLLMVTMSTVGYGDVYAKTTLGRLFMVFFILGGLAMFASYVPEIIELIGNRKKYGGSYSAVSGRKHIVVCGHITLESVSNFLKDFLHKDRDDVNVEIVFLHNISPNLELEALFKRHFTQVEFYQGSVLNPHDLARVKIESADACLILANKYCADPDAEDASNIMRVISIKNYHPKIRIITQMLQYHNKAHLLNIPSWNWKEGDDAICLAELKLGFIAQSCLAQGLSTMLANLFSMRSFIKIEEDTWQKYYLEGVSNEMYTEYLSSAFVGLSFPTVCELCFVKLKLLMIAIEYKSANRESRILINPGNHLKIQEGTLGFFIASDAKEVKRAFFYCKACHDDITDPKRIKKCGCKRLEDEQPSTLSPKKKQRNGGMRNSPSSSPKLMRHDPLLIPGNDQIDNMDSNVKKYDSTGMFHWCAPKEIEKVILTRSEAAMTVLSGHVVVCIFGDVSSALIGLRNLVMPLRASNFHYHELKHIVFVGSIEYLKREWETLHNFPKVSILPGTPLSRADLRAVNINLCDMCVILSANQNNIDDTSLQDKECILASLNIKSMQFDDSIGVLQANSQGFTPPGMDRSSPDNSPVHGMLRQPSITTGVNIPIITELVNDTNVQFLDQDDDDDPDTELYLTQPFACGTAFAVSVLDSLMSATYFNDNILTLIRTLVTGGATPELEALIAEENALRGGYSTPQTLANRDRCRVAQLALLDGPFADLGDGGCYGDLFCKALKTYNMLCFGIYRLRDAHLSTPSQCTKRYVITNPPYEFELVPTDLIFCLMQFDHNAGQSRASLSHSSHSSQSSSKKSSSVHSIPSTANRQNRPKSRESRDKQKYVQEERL

For C[C@H](CO)NC(=O)c1cccc(/C=C\CCCC(=O)N(C)C)c1 [VSN16R], the effect on current was “only a minor effect on current”.
